Molecular target: WDR5 (Homo sapiens (Human), UniProt P61964)
Assay: Surface Plasmon Resonance (SPR) assay, KD and residence time
Format: binding
Settings: surface plasmon resonance (SPR) assay; read-out: WDR5 binding affinity (KD)

| SMILES | Kd |
| --- | --- |
| C[C@@H]1CN(c2cc(F)c(-c3cnc(N4CCOCC4)nc3)cc2NC(=O)c2cc(C(F)(F)F)[nH]n2)C[C@H](C)N1C [Example 321, N-[4-fluoro-5-(2-morpholin-4-ylpyrimidin-5-yl)-2-[(3R,5S)-3,4,5-trimethylpiperazin-1-yl]phenyl]-5-(trifluoromethyl)-1H-pyrazole-3-carboxamide] | 63.1 nM |
| C[C@@H]1CN(c2cc(F)c(C3=CCCN(C(=O)OC(C)(C)C)C3)cc2NC(=O)c2c[nH]c(=O)cc2C(F)(F)F)C[C@H](C)N1C [Example 322, tert-butyl 5-[2-fluoro-5-[[6-oxo-4-(trifluoromethyl)-1H-pyridine-3-carbonyl]amino]-4-[(3R,5S)-3,4,5-trimethylpiperazin-1-yl]phenyl]-3,6-dihydro-2H-pyridine-1-carboxylate] | 1.36 nM |
| C[C@@H]1CN(c2cc(F)c(C3=CCN(C(=O)OC(C)(C)C)C3)cc2NC(=O)c2c[nH]c(=O)cc2C(F)(F)F)C[C@H](C)N1C [Example 323, tert-butyl 3-[2-fluoro-5-[[6-oxo-4-(trifluoromethyl)-1H-pyridine-3-carbonyl]amino]-4-[(3R,5S)-3,4,5-trimethylpiperazin-1-yl]phenyl]-2,5-dihydropyrrole-1-carboxylate] | 2.48 nM |
| C[C@@H]1CN(c2cc(F)c(C3=CCCN(C(=O)OC(C)(C)C)C3)cc2NC(=O)c2cn(C)c(=O)cc2C(F)(F)F)C[C@H](C)N1C [Example 325, tert-butyl 5-[2-fluoro-5-[[-methyl-6-oxo-4-(trifluoromethyl)pyridine-3-carbonyl]amino]-4-[(3R,5S)-3,4,5-trimethylpiperazin-1-yl]phenyl]-3,6-dihydro-2H-pyridine-1-carboxylate] | 7.3 nM |
| C[C@@H]1CN(c2cc(F)c(C3=CCN(C(=O)OC(C)(C)C)C3)cc2NC(=O)c2cn(C)c(=O)cc2C(F)(F)F)C[C@H](C)N1C [Example 326, tert-butyl 3-[2-fluoro-5-[[-methyl-6-oxo-4-(trifluoromethyl)pyridine-3-carbonyl]amino]-4-[(3R,5S)-3,4,5-trimethylpiperazin-1-yl]phenyl]-2,5-dihydropyrrole-1-carboxylate] | 3.05 nM |
| C[C@@H]1CN(c2cc(F)c(C3=CCNC3)cc2NC(=O)c2c[nH]c(=O)cc2C(F)(F)F)C[C@H](C)N1C [Example 329, N-[5-(2,5-dihydro-1H-pyrrol-3-yl)-4-fluoro-2-[(3R,5S)-3,4,5-trimethylpiperazin-1-yl]phenyl]-6-oxo-4-(trifluoromethyl)-1H-pyridine-3-carboxamide] | 4.05 nM |
| C[C@@H]1CN(c2cc(F)c(C3=CC4CCC(C3)N4)cc2NC(=O)c2c[nH]c(=O)cc2C(F)(F)F)C[C@H](C)N1C (stereo partly drawn) [Example 330, N-[5-(8-azabicyclo[3.2.1]oct-2-en-3-yl)-4-fluoro-2-[(3R,5S)-3,4,5-trimethylpiperazin-1-yl]phenyl]-6-oxo-4-(trifluoromethyl)-1H-pyridine-3-carboxamide] | 5.74 nM |
| C[C@@H]1CN(c2cc(F)c(C3=CCN(c4ncccn4)C3)cc2NC(=O)c2c[nH]c(=O)cc2C(F)(F)F)C[C@H](C)N1C [Example 335, N-[4-fluoro-5-(1-pyrimidin-2-yl-2,5-dihydropyrrol-3-yl)-2-[(3R,5S)-3,4,5-trimethylpiperazin-1-yl]phenyl]-6-oxo-4-(trifluoromethyl)-1H-pyridine-3-carboxamide] | 2.56 nM |
| C[C@@H]1CN(c2cc(F)c(C3=CC4CCC(C3)N4c3ncccn3)cc2NC(=O)c2c[nH]c(=O)cc2C(F)(F)F)C[C@H](C)N1C (stereo partly drawn) [Example 336, N-[4-fluoro-5-(8-pyrimidin-2-yl-8-azabicyclo[3.2.1]oct-2-en-3-yl)-2-[(3R,5S)-3,4,5-trimethylpiperazin-1-yl]phenyl]-6-oxo-4-(trifluoromethyl)-1H-pyridine-3-carboxamide] | 12.5 nM |
